Experimental data as given in US10973748B2, “Compositions and methods for lightening skin and reducing hyperpigmentation” (Versitech Limited, priority 2016, dated 2021).

Columns and labels:
melan-a cells = test: Cellular melanin content (SRB combined assay); format: cell-based, murine; details: α-MSH, 72 hrs
Description: Murine melan-a cells (an immortalized, non-tumorigenic murine melanocyte cell line) were obtained from Chinese University of Hong Kong. Cells were cultured in RPMI 1640 medium. Culture medium was supplemented with 10% FBS and 1% penicillin-streptomycin and the cells were incubated at 37° C. in 5% CO2. […] The tested chemical agents (e.g., 6-CEPN and Kojic acid) were individually dissolved as a stock solution at a concentration of 100 mM in 100% dimethyl sulfoxide (DMSO). The stock solution was diluted using culture medium to the desired final concentrations immediately prior to use.
Melan-a cells (3×10^5 cells/well) were plated in 2 mL of 12-well multidishes for at least 24 hrs prior to use. […] Melanin content was measured using a sulphorhodamine B (SRB) combined assay (Lam R Y et al., J Ethnopharmacol, 132(1):274-9 (2010); Chinese patent application publication no. CN 104758191 A) to ensure any reduction in the melanin content was not due to the death of melan-a cells. As the colorimetric-based SRB assay could accurately estimate the number of viable cells, the melanin level was expressed as melanin content versus each single cell by taking into account the results of viable cells from the SRB assay. […] After a 72 h incubate, cell number was counted using SRB assay. […] The OD value was read at 595 nm. […]

[1] = tested on: tyrosinase-related protein-1 (TRP1); test: Western blotting of TRP-1 protein level in melan-a cells; format: cell-based, murine; details: α-MSH, 72 hrs, 20 μM
Description: Melan-a cells (3×10^5 cells/well) were seeded in 4 mL of culture medium in a 6-well plate for at least 24 hrs prior to use. The cells were treated with α-MSH (1 μM) alone, α-MSH plus plus different concentration of agents for 72 hrs. The cells were washed with cold PBS and then lysed in 100 μL of RIPA buffer containing 1% Nonidet P-40, 0.1% sodium dodecylsulfate, 0.5% sodium deoxycholate, and 2% protease inhibitor at 4° C. Samples were centrifuged at 14,000 rpm for 30 mins at 4° C., and total proteins in the supernatant were separated. 10 μg of denatured proteins were loaded per lane, and separated by 10% SDS-PAGE gel. Proteins were then transferred to Immobilon-P Transfer Membranes (Millipore Co., Bed-ford, Mass.) by semidry transfer. Membranes were incubated with primary antibodies specific for Tyrosinase, tyrosinase-related protein-1 (TRP1), tyrosinase-related protein-2 (TRP2), and microphthalmia-associated transcription factor (MITF). The blots were subsequently washed and incubated with the appropriate secondary antibodies. Immunoreactive protein bands were visualized with enhanced chemiluminescence western blotting detection reagents and quantified using an ODYSSEY Fc Imaging system. The amounts of protein loaded were normalized against a control protein, β-actin.

[2] = tested on: MelanoDerm (Mel-300-A) epidermal equivalents containing melanocytes; test: Tissue viability of artificial skin model (CCK-8); format: cell-based, human; details: whole treatment period (14 days), rapamycin 2.5 μM, 6-CEPN 10 μM, 8-CEPQ 5 μM
Description: Epidermal equivalents containing melanocytes (Mel-300-A) were maintained according to the manufacturer's instructions. Mel-300-A tissue was cultured in EPI-100-NMM-113 medium for 14 days. Agents were dissolved in tissue culture medium and changed every other day. The test agents were either (1) rapamycin (2.5 μM), as the positive control in depigmentation, (2) 6-CEPN (10 μM), or (3) 8-CEPQ (5 μM). The concentration of rapamycin used was lower than 6-CEPN and 8-CEPQ, as rapamycin is toxic to cells at higher concentration. Pigmentation of these skin equivalents was compared against treatment of cells with a culture medium only (denoted as “vehicle”). Tissue viability was assessed on day 14 by CCK-8 assay as described in Example 1. On day 14, single tissues were harvested and photographed. The L* parameter was used to evaluate skin lightening or darkening. The lighter the skin, the greater the L* value. ΔL* value was measured by a Chroma Meter CR400 (Konica Minolta) for an evaluation of lightening as a function of time. Three tissues for each treatment were frozen for the Solvable Melanin assay (Bessou-Touya et al., “Chimeric human epidermal reconstructs to study the role of melanocytes and keratinocytes in pigmentation and photoprotection.” Journal of investigative dermatology 111(6):1103-1108 (1998)). Additional tissues were fixed by 10% formanin. For melanin staining in paraffin-embedded tissues, Fontana-Masson silver staining was used as previously detailed (Barbosa et al., “A simple and economical modification of the Masson-Fontana method for staining melanin granules and enterochromaffin cells.” Stain technology 59(4):193-196 (1984)).

O=C1C[C@@H](c2ccc(O)cc2)Oc2cc(O)c(/C=C/c3ccccc3)c(O)c21 [6-CEPN, 6-C-(E-phenylethenyl)-naringenin]
depigmenting effects (in words) (melan-a cells): much stronger depigmenting effects than kojic acid | depigmentation (melan-a cells; 20 μM): ~80% | protein level of TRP-1 [1]: significantly suppressed | cytotoxicity (tissue viability) [2]: without significant cytotoxicity
